According to the NIST ThermoML archive (doi:10.1016/j.jct.2010.11.014):

Assays:
[1] = molar heat capacity at constant pressure; xn = mol fraction of the nth substance listed; conditions: 101.3 kPa, Liquid, Adiabatic Solution Calorimetry
[2] = excess molar enthalpy (molar enthalpy of mixing); xn = mol fraction of the nth substance listed; conditions: 298.15 K, 101.3 kPa, Liquid, Adiabatic Solution Calorimetry

CCn1cc[n+](C)c1.COP(=O)([O-])OC [1-ethyl-3-methylimidazolium dimethylphosphate] + CCO
molar heat capacity at constant pressure [J/K/mol], [1]
Conditions | x1 = 0.2 | x1 = 0.4 | x1 = 0.6 | x1 = 0.8 | x1 = 1
298.15 K | 153.21 | 220.84 | 272.51 | 324.35 | 329.37
303.15 K | 171.31 | 235.29 | 289.67 | 348.58 | 346.23
313.15 K | 205.63 | 282.28 | 340.78 | 404 | 381.64
323.15 K | 258.83 | 335.32 | 398.34 | 448.05 | 411.74

[2]
Conditions | excess molar enthalpy [kcal/mol]
x1 = 0.15 | -0.428
x1 = 0.31 | -0.656
x1 = 0.47 | -0.57
x1 = 0.59 | -0.522
x1 = 0.8 | -0.286

CCn1cc[n+](C)c1.COP(=O)([O-])OC [1-ethyl-3-methylimidazolium dimethylphosphate] + CO
molar heat capacity at constant pressure [J/K/mol], [1]
Conditions | x1 = 0.2 | x1 = 0.41 | x1 = 0.59 | x1 = 0.77 | x1 = 1
298.15 K | 147.03 | 213.84 | 269.26 | 297.59 | 329.37
303.15 K | 163.64 | 229.84 | 289.07 | 306.37 | 346.23
313.15 K | 215.28 | 271.99 | 337.82 | 334.16 | 381.64
323.15 K | 252.08 | 312.33 | 370.93 | 371.12 | 411.74

[2]
Conditions | excess molar enthalpy [kcal/mol]
x1 = 0.1 | -0.376
x1 = 0.3 | -0.803
x1 = 0.5 | -0.801
x1 = 0.65 | -0.62
x1 = 0.79 | -0.435

CCn1cc[n+](C)c1.COP(=O)([O-])OC [1-ethyl-3-methylimidazolium dimethylphosphate] + O
molar heat capacity at constant pressure [J/K/mol], [1]
Conditions | x1 = 0.18 | x1 = 0.4 | x1 = 0.6 | x1 = 0.8 | x1 = 1
298.15 K | 119.02 | 167.14 | 224.66 | 279.14 | 329.37
303.15 K | 125.02 | 176.74 | 242.41 | 288.72 | 346.23
313.15 K | 134.91 | 203.5 | 276.49 | 323.78 | 381.64
323.15 K | 148.41 | 228.82 | 304.05 | 352.68 | 411.74

[2]
Conditions | excess molar enthalpy [kcal/mol]
x1 = 0.18 | -1.26
x1 = 0.31 | -1.51
x1 = 0.45 | -1.44
x1 = 0.64 | -1.15
x1 = 0.82 | -0.604
